Measured values reported in US5500444A, “Cardioprotective tocopherol analogs” (Hoechst Marion Roussel, Inc., priority 1994, dated 1996).
Values joined by “and” are separate entries in the source; they are usually repeats but may differ in a detail not shown here. Equal values may be shown once. Read-outs that look alike come from different tables or passages of the source.

Assays:
[1] = autoxidation of 1-epinephrine (superoxide radical reduction, Misra and Fridovich); format: biochemical; details: 1-epinephrine 1×10^-4 M, EDTA 1×10^-4 M, 30° C.; read-out: 50% inhibition of the autoxidation rate (ID50)
Method: 2-(3,4-dihydro-6-hydroxy-2,5,7,8-tetramethyl-2H-1-benzopyran-2-yl)ethyl-N,N,N-trimethylammonium bromide, described in Example 1, was evaluated for its ability to reduce superoxide radicals in an assay described by H. P. Misra and J. Fridovich, 1972, J. Biol. Chem. 247, 3170-5. In this assay, the rate of autoxidation of 1-epinephrine (1×10^-4 M) in the presence of EDTA (1×10^-4 M) at 30° C. is followed spectrophotometrically following the increase of absorbance at 480 mn.
Misra and Fridovich report that bovine superoxide dismutase gave 50% inhibition at 46mg per ml.

[2] = superoxide radicals generated by xanthine oxidase/xanthine, detected by reduction of nitro blue tetrazolium; format: biochemical; details: for superoxide radicals scavenged: at 200 μM; for IC50: read-out: IC50 (superoxide radical scavenging)
Method: In another evaluation, superoxide radicals were generated by 4 mU of xanthine oxidase in the presence of 0.1 mM xanthine and detected by reduction of 40 μM nitro blue tetrazolium to the diformazan dye in a spectrophotometric assay as described by C. Beauchamp and I. Fridovich, (1971) Analyt. Biochem. 44, 276-287. 30 U of superoxide dismutase inhibited this reduction by 90% which, therefore, was due to superoxide radicals. […] Trolox is a commercial antioxidant and is a known potent superoxide radical scavenger. For comparison, D,L-penicillamine and N-2-mercaptopropionyl glycine at 200 μM scavenged only 14% of the superoxide radicals. Neither of the scavengers inhibited xanthine oxidase, when tested at 200 μM.

human α1 Pi = experiment: Protection of α1 Pi from leukocyte-mediated inactivation (residual elastase inhibitory capacity); format: cell-based; details: for Relative PC50: concentration to protect 50% of elastase inhibitory capacity of α1 Pi, mean ± S.D. (n = 3) for Compound A; for inactivation of α1 Pi: zymosan-stimulated human leukocytes
Excerpt: Stimulated human leukocytes release radicals and other oxygen metabolites, which, during inflammation, act as microbicidal agents. At the same time, they release proteolytic enzymes, such as elastase, which are also microbicidal but potentially threaten the connective tissue of the host. An endogenous α1 -proteinase inhibitor (α1 Pi) normally protects the host tissue from proteolytic digestion. α1 Pi is, however, inactivated by the leukocyte-derived oxidants. The inactivation of α1 Pi is antagonized by the disclosed radical scavengers 2-(3,4-dihydro-6-hydroxy-2,5,7,8-tetramethyl-2H-1-benzopyran-2-yl)-N,N,N-trimethylethanammonium, 4-methylbenzylsulfonate (Compound A) and 3,4-dihydro-2-(2-dimethylaminoethyl)-2,5,7,8-tetramethyl-2H-1-benzopyran-6-ol (Compound B). The concentration needed to protect 50% of the elastase inhibitory capacity of α1 Pi (PC50) depends on the amount of stimulated leukocytes present.
The procedure described by Skosey and Chow was followed (see Skosey, J. L. and Chow, D. C. (1985) In Handbook of Methods for Oxygen Radical Research (Greenwald, R. A., ed.) pp. 413-416, CRC Press, Boca Raton). In short, human α1 Pi was incubated with zymosan-stimulated human peripheral-blood leukocytes in the absence or presence of the scavengers. The amount of α1 Pi protected from oxidative inactivation was determined by its residual elastase inhibitory capacity.

[3] = oral absorption and excretion; format: in vivo
β2 -receptors = details: infarcted reperfused heart, rats; Lukovic et al., 1992; cited from earlier work
[4] = test system: rats subjected to myocardial ischemia and reperfusion; details: Lukovic et al., 1992; cited from earlier work
[5] = test system: ligation-induced infarcted and reperfused rats; experiment: Cardioprotective effects in ligation-induced infarcted and reperfused rats; format: in vivo; details: treated group, 10 mg/kg/h i.v., individual rats No. 1-10
Method: 2-(3,4-Dihydro-2,5,7,8-tetramethyl-6-methylcarbonyloxy-2H-1-benzopyran-2-yl)ethyl-N,N,N-trimethylammonium bromide was evaluated in ligation-induced infarcted and reperfused rats as follows. One of two groups of rats was infused intravenously with a solution of test compound in saline at a rate of 2.3 ml/h (10 mg/kg/h). The control group was infused with saline at the same rate. After 10 min of drug infusion, coronary arteries were ligated surgically for 60 min, ligation was loosened to allow reperfusion for 30 min. The ligation was retied and a dye (Evans Blue) was injected. The animals were sacrificed and the heart ventricles were removed and weighed. The unstained tissue was dissected and weighed; this represents the "area at risk", i.e. the area that was deprived of blood supply by ligation. To determine the infarcted area, the tissue was incubated with 2,3,5-triphenyltetrazolium chloride. Infarcted tissue became light colored and could be dissected and weighed. Thus, for each rat that survived the ligation a measurement of "area at risk" and of "infarcted area" was obtained and the ratio was calculated as given in Tables II and III.

[6] = Affinity for cardiac tissue (radioactivity in heart and blood after intravenous 14C-labelled compound); format: in vivo, rats; details: rat, 0.91 mg base/kg i.v.
Method: Following the procedure described in Example 9, but using ^14 C-methyl p-toluenesulfonate in place of "cold material", ^14 C-labelled 2-(3,4-dihydro-2,5,7,8-tetramethyl-6-methylcarbonyloxy-2H-1-benzopyranan-2-yl)ethyl-N,N,N-tri-^14 C-methylammonium p-toluenesulfonate was synthesized. The preparation was diluted with "cold material" to 11.74 μCi/mg base.
24 rats were given 0.91 mg base/kg by intravenous route (by canula into the jugular vein). The animals were sacrificed in groups of 3 at the time periods indicated in Table I. Immediately before sacrifice a 0.5 ml blood sample was taken from an indwelling catheter in the carotid artery. The hearts were removed, blotted and weighed. The samples of tissue and blood were solubiized with Luma Solve (a quaternary ammonium hydroxide preparation) and radioactivity was determined in a scintillation counter.

[7] = test system: canine myocardial reperfusion injury; details: Lucchesi and coworkers; cited from earlier work
hyperlipidemic rabbits = details: Carew et al., 1987; cited from earlier work
[8] = 4 mU xanthine oxidase, 0.1 mM xanthine, 40 μM nitro blue tetrazolium

## CC(C)(S)C(N)C(=O)O (racemic) [D,L-penicillamine, reference compound]
[1]
  IC50: 73 µM
[2]
  superoxide radicals scavenged: 14%

## Cc1c(C)c2c(c(C)c1O)CCC(C)(CC[N+](C)(C)C)O2 (racemic) [Example 1, 2-(3,4-Dihydro-6-hydroxy-2,5,7,8-tetramethyl-2H-1-benzopyran-2-yl)ethyl-N,N,N-trimethylammonium bromide]
[1]
  IC50: 138 ± 14 µM

## Cc1c(C)c2c(c(C)c1O)CCC(C)(CC[N+](C)(C)C)O2 (centres unmarked) [Compound A, 3,4-Dihydro-6-hydroxy-N,,N,N,2,5,7,8-heptamethyl-2H-1-benzopyran-2-ethanaminium 4-methylbenzenesulfonate]
[2]; [8]
  IC50: 28 µM
Human α1 Pi
  Relative PC50: 4.5 ± 1 μM/μg leukocyte protein
  inactivation of α1 Pi: antagonized
[3]
  oral absorption: not or ally absorbed
  recovery in the feces: found unchanged in the feces
[3]; listed as Example 11
  oral absorption: not orally absorbed
β2 -receptors
  density of β2 -receptors: further increased the density of β2 -receptors
[4]
  cardiac output: enhanced
  contractility: enhanced

## Cc1c(C)c2c(c(C)c1O)CCC(C)(CCN(C)C)O2 (centres unmarked) [Compound B, 3,4-dihydro-2-(2-dimethylaminoethyl)-2,5,7,8-tetramethyl-2H-1-benzopyran-6-ol]
[2]; [8]
  IC50: 28 µM
Human α1 Pi
  Relative PC50: 7.3 μM/μg leukocyte protein
  inactivation of α1 Pi: antagonized

## CC(=O)Oc1c(C)c(C)c2c(c1C)CCC(C)(CC[N+](C)(C)C)O2.[Br-] (centres unmarked) [Example 2, 2-(3,4-Dihydro-2,5,7,8-tetramethyl-6-methylcarbonyloxy-2H-1-benzopyran-2-yl)ethyl-N,N,N-trimethylammonium bromide]
[5]
  Tissue at risk: 307 mg and 255 mg and 176 mg and 381 mg and 310 mg and 207 mg and 395 mg and 229 mg and 50 mg and 285 mg

## CC(=O)Oc1c(C)c(C)c2c(c1C)CCC(C)(CC[N+](C)(C)C)O2.Cc1ccc(S(=O)(=O)[O-])cc1 (centres unmarked) [Example 9, 2-(3,4-Dihydro-2,5,7,8-tetramethyl-6-methylcarbonyloxy-2H-1-benzopyran-2-yl)ethyl-N,N,N-trimethylammonium p-toluenesulfonate]
[6]
  affinity for heart tissue: marked affinity for heart tissue
[6]; 5 min
  Ratio heart/blood: 3.05 ± 1.46
  µg equiv/g: 1.59 ± 0.22 µg equiv/g
  µg equiv/mL: 0.434 ± 0.351 µg equiv/mL
[6]; 15 min
  Ratio heart/blood: 6.90 ± 8.34
  µg equiv/g: 1.73 ± 0.422 µg equiv/g
  µg equiv/mL: 0.59 ± 0.295 µg equiv/mL
[6]; 30 min
  Ratio heart/blood: 17.33 ± 5.42
  µg equiv/g: 1.91 ± 0.278 µg equiv/g
  µg equiv/mL: 0.124 ± 0.032 µg equiv/mL
[6]; 1 hour
  Ratio heart/blood: 20.09 ± 2.54
  µg equiv/g: 2.09 ± 0.406 µg equiv/g
  µg equiv/mL: 0.096 ± 0.008 µg equiv/mL
[6]; 2 hours
  Ratio heart/blood: 21.90 ± 3.56
  µg equiv/g: 1.4 ± 0.042 µg equiv/g
  µg equiv/mL: 0.086 ± 0.041 µg equiv/mL
[6]; 4 hours
  µg equiv/g: 1.25 ± 0.248 µg equiv/g
  µg equiv/mL: 0.054 ± 0.013 µg equiv/mL
[6]; 4 hours (maximum), p-toluenesulfonate, 0.91 mg/kg, 240 min
  Ratio heart/blood: 27.15 ± 4.30 and 27.15
[6]; 6 hours
  Ratio heart/blood: 18.62 ± 2.77
  µg equiv/g: 0.863 ± 0.067 µg equiv/g
  µg equiv/mL: 0.048 ± 0.007 µg equiv/mL
[6]; 8 hours
  Ratio heart/blood: 15.12 ± 2.69
  µg equiv/g: 0.652 ± 0.116 µg equiv/g
  µg equiv/mL: 0.048 ± 0.012 µg equiv/mL
[6]; after 8 h
  concentration of drug in heart tissue: 0.65 μg equiv/g

## CC(S)C(=O)NCC(=O)O (centres unmarked) [N-2-mercaptopropionyl glycine, reference compound]
[2]
  superoxide radicals scavenged: 14%
[7]
  canine myocardial reperfusion injury: reduce canine myocardial reperfusion injury

## Cc1c(C)c2c(c(C)c1O)CCC(C)(C(=O)O)O2 (centres unmarked) [Trolox, 3,4dihydro-6-hydroxy-2,5,7,8-tetramethyl-2H-1-benzopyrane-2-carboxylic acid, reference compound]
[1]
  IC50: 105 ± 8 µM
[2]; [8]
  IC50: 28 µM
Human α1 Pi; at 1 mM
  protection of α1 Pi (Relative PC50 column): Inactive at 1 mM

## CC(C)(Sc1cc(C(C)(C)C)c(O)c(C(C)(C)C)c1)Sc1cc(C(C)(C)C)c(O)c(C(C)(C)C)c1 [probucol]
Hyperlipidemic rabbits
  anti-atherosclerotic effect: marked anti-atherosclerotic effect

## superoxide dismutase
[2]; 30 U superoxide dismutase, 4 mU xanthine oxidase, 0.1 mM xanthine, 40 μM nitro blue tetrazolium
  inhibition of nitro blue tetrazolium reduction: 90%
[7]
  canine myocardial reperfusion injury: reduce canine myocardial reperfusion injury
